As a reminder, the melting point is the temperature of the solid-liquid transition.

Take `COc1ccc(S(=O)(=O)NC(C)(C)C(=O)NO)cc1` [Example 9, N-Hydroxy-2-(4-methoxybenzenesulfonylamino)-2-methylpropionamide]: the melting point fell in the range of 122 to 125 °C.
As for `O=C(NO)C1(NS(=O)(=O)c2ccc(Oc3ccc(F)cc3)cc2)CC1` [Example 5, 1-[4-(4-Fluorophenoxy)benzenesulfonylamino]cyclopropane-1-carboxylic acid hydroxyamide], the figure is 184 °C; as for `CC(C)(NS(=O)(=O)c1ccc(OCCC2CCCC2)cc1)C(=O)NO` [Example 12, 2-[4-(2-Cyclopentylethoxy)benzenesulfonylamino]-N-hydroxy-2-methyl-propionamide], 126 to 127 °C; as for `CC(C)(NS(=O)(=O)c1ccc(-c2ccccn2)s1)C(=O)NO` [Example 13, N-Hydroxy-2-methyl-2-(5-pyridin-2-ylthiophene-2-sulfonylamino)propionamide], 165 to 166 °C.
As for `O=C(NO)C1(NS(=O)(=O)c2ccc(Oc3ccc(F)cc3)cc2)CCCCC1` [Example 4, 1-[4-(4-Fluorophenoxy)benzenesulfonylamino]cyclohexane-1-carboxylic acid hydroxyamide], the figure is 174 °C; as for `CC(C)CCOc1ccc(S(=O)(=O)NC(C)(C)C(=O)NO)cc1` [Example 11, N-Hydroxy-2-methyl-2-[4-(3-methylbutoxy)benzenesulfonylamino]-propionamide], 126.5 to 128 °C.

The values above are taken from patent publication US20020006920A1, “Arylsulfonylamino hydroxamic acid derivatives” (priority 1999, published 2002).
